Where a name gives a salt, the structure may show the parent alone. Read-outs that look alike come from different tables or passages of the source.
Legend:
MAO-B = target: T1, MAO-B (Homo sapiens, UniProt P27338); experiment: MAO-B inhibitory assay; assay type: biochemical
T1 construct: purchased Sigma M7441
T1 sequence (P27338 1-520): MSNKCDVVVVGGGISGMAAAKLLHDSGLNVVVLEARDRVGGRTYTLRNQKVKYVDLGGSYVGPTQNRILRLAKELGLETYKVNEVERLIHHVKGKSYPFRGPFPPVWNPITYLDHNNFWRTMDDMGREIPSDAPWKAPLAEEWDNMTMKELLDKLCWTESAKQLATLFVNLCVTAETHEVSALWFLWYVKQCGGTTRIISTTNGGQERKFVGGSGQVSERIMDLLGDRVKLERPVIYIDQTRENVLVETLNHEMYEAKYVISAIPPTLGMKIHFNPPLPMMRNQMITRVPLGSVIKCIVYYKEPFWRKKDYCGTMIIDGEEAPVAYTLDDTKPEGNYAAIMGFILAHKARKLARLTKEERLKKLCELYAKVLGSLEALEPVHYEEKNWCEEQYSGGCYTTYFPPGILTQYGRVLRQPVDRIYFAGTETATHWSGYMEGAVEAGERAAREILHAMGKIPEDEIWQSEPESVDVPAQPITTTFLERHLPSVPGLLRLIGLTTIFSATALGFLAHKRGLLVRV

[1] = DPPH radical scavenging activity; settings: means of three replicates; N.A. means no activity; read-out: DPPH-IC50 (µM ± SD)
AChE [2] = target: T2, AChE (Homo sapiens, UniProt P22303); experiment: AChE inhibitory assay (Ellman-type, brain homogenate supernatant); assay type: biochemical; settings: for AChE-IC50 (µM ± SD) / IC50: means of three replicates, N.A. means no activity; for IC50: read-out: AChE-IC50 (µM ± SD); for AChE Selectivity Index: IC50 of BuChE/ IC50 of AChE
T2 construct: from tissue; host or cells: brain homogenate supernatant
Protocol: The results, which are shown in Table 1, are graphically represented in Figs. 2 and 3. […]
3.1. AChE and BuChE inhibitory assays
In ELISA plate (Bio Tec. USA), 150 μL of phosphate buffer was directly added in ELISA blank well and 130 μL of phosphate buffer was added in ELISA activity wells. To the blank and activity wells, 5 μL of substrate ACTI was added, then 20 μL brain homogenate supernatant was added in activity ELISA wells only. The plate was preincubated for 15 min at 37 °C before the addition of the second substrate (DTNB). DTNB (60 μL) was added in both the blank and activity wells. Absorbance was […]
Values obtained were analyzed and blank reading was subtracted from sample readings. The AChE and BuChE inhibition activity of tested compound was expressed as IC 50. IC50 value is the inhibitory concentration at which 50% of AChE or BuChE is repressed. […]
sample concentration using linear regression equations.

MAO-A = target: T3, MAO-A (Homo sapiens, UniProt P21397); experiment: biochemical
T3 sequence (P21397 1-527): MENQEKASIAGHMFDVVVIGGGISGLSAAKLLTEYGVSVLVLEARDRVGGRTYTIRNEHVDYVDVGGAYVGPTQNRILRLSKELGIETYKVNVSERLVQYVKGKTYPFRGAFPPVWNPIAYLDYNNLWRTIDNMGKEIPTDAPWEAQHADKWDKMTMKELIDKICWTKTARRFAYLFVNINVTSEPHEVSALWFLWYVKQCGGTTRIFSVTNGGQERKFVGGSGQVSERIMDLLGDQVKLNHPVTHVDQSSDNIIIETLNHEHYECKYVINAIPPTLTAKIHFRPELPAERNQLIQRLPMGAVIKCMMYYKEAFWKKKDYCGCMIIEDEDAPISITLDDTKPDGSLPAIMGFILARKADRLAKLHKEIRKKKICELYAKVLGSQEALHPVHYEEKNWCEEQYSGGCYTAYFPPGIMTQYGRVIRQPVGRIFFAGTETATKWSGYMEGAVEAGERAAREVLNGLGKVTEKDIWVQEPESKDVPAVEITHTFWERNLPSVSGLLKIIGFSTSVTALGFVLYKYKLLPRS
Protocol: The MAO-B and MAO-A inhibitory potentials of all the synthesized 1,2,4-oxadiazole-based derivatives were evaluated. Biperiden and methylene blue (methylthioninium chloride) were used as the reference standards.
In test tube, 150 µL of 20 nM of MAO-A or MAO-B (M7441, Sigma), 150 µL of tested compound serial dilutions (0, 0.1,
0.25, 0.5,1 and 2 mg/mL), 133 µL potassium phosphate buffer and 667 µL of or benzylamine (5µM) were mixed well.
absorbance was measured at 250 nm against air after 30 s and 90 s. The Inhibition percentage was calculated.
inhibitory concentration at which 50% of MAO -A or MAO-B is repressed.

[3] = tested on: human red blood cells (HRBCs); experiment: Anti-hemolytic effect (hypotonic solution-induced human erythrocyte hemolysis); assay type: cell-based; settings: read-out: Hemolysis-IC50 (µM ± SD)
Protocol: The inhibition of human red blood cells (HRBCs) membrane lysis under […] conditions was taken as a measure of the mechanism of anti-hemolytic activity of the synthesized 1,2,4-oxadiazole-based derivatives. […]
The test carried out triplicate. […]
It was calculated by interpolation from the graph of inhibition percentage against sample concentration using linear regression equations.
The Inhibition percentage was calculated. IC50 value is the […]
centrifugation each time for 10 min at 3000 ×g. […]
solution-induced human erythrocyte hemolysis. […]
consisted of 0.5 mL of RBCs mixed with hypotonic-buffered saline solution alone. The mixtures were incubated for 10 min at room temperature and centrifuged for 10 min at 3000 ×g and the absorbance of the supernatant was measured at 540 nm using optima spectrophotometer. The test carried out triplicate. Inhibition of hemolysis percentages were calculated. Inhibition of hemolysis activity was expressed as IC50.

AChE [4] = target: T2, AChE; design: method as in PMID 18550375, PMID 33017743, PMID 36223681, PMID 34752955, PMID 26077890; settings: Fig. 1; ref [50]–[55]; cited from earlier work
[5] = design: method as in PMID 18550375, PMID 33017743, PMID 36223681, PMID 34752955, PMID 26077890; settings: Fig. 1; ref [50]–[55]; read-out: Anti-neuroinflammatory potency (IC50); cited from earlier work
GSK-3β = tested on: GSK-3β; design: method as in PMID 18550375, PMID 33017743, PMID 36223681, PMID 34752955, PMID 26077890; settings: Fig. 1; ref [50]–[55]; cited from earlier work
[6] = inhibition of induced HRBC membrane lysis, means of three replicates

T2 sequence (P22303 32-614): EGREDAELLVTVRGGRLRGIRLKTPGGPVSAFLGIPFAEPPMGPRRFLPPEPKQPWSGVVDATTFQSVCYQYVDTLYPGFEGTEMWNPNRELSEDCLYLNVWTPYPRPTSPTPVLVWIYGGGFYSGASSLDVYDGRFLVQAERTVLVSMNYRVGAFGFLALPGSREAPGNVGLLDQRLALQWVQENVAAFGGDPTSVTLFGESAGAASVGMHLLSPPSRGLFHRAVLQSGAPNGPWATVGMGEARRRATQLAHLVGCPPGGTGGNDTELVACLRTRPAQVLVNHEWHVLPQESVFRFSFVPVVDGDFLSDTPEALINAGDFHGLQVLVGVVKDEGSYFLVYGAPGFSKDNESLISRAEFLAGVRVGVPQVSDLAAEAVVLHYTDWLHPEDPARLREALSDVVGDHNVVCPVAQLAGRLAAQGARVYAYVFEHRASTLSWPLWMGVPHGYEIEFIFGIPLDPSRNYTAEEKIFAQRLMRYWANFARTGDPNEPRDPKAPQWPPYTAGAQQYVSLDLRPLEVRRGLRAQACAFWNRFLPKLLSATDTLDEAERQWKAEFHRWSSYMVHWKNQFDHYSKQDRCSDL

SMILES: OC(CCN1CCCCC1)(c1ccccc1)C1CC2C=CC1C2 (centres unmarked) [Biperiden HCl, reference compound]
- IC50 (MAO-B; means of three replicates, N.A. means no activity, read-out: MAO-B-IC50 (µM ± SD)): 238 ± 16.3 µM

SMILES: NNC(=O)COc1ccccc1-c1nc(-c2ccccc2)no1 [Compound 1a]
- IC50 [1]: 1220 ± 51.3 µM
- AChE-IC50 (µM ± SD) (AChE [2]): nonexistent efficacy
- IC50 (MAO-A): 47.2 ± 8.1 µM
- IC50 (MAO-B): 359 ± 23.4 µM
- IC50 [3, 6]: 1620 ± 57.8 µM

SMILES: NNC(=O)COc1ccccc1-c1nc(Cc2ccccc2)no1 [Compound 1b]
- IC50 [1]: 1280 ± 42.8 µM
- IC50 (AChE [2]): 0.031 ± 0.0024 µM
- IC50 (MAO-A): 82.5 ± 8.7 µM
- IC50 (MAO-B): 535 ± 41.5 µM
- IC50 [3, 6]: 1190 ± 78.3 µM

SMILES: NNC(=O)COc1ccccc1-c1nc(-c2ccc(C(F)(F)F)cc2)no1 [Compound 1c]
- IC50 [1]: 735 ± 12.8 µM
- AChE-IC50 (µM ± SD) (AChE [2]): nonexistent efficacy
- IC50 (MAO-A): 147 ± 16.9 µM
- IC50 (MAO-B): 397 ± 19.6 µM
- IC50 [3, 6]: 657 ± 33.1 µM

SMILES: O=C(COc1ccccc1-c1nc(-c2ccccc2)no1)N/N=C\c1ccccc1[N+](=O)[O-] [Compound 2a, (E/Z)-N’-(2-Nitrobenzylidene)-2-(2-(3-phenyl-1,2,4-oxadiazol-5-yl)phenoxy)acetohydrazide]
- IC50 [1]: 1310 ± 31.5 µM
- IC50 (AChE [2]): 0.0339 ± 0.0029 µM
- IC50 [3, 6]: 1790 ± 63.1 µM

SMILES: O=C(COc1ccccc1-c1nc(Cc2ccccc2)no1)N/N=C\c1ccccc1[N+](=O)[O-] [Compound 2b, (E/Z)-2-(2-(3-Benzyl-1,2,4-oxadiazol-5-yl)phenoxy)-N’-(2-nitrobenzylidene)acetohydrazide]
- IC50 [1]: 991 ± 11.4 µM
- AChE Selectivity Index (AChE [2]): 36,571
- IC50 (AChE [2]): 0.00098 ± 1e-06 µM
- IC50 (MAO-A): 204 ± 17.9 µM
- IC50 (MAO-B): 346 ± 14.3 µM
- IC50 [3, 6]: 4100 ± 114 µM

SMILES: O=C(COc1ccccc1-c1nc(-c2ccc(C(F)(F)F)cc2)no1)N/N=C\c1ccccc1[N+](=O)[O-] [Compound 2c, (E/Z)-N’-(2-Nitrobenzylidene)-2-(2-(3-(4-(trifluoromethyl)phenyl)-1,2,4-oxadiazol-5-yl)phenoxy) acetohydrazide]
- IC50 [1]: 464 ± 31.5 µM
- AChE Selectivity Index (AChE [2]): 3,100
- IC50 (AChE [2]): 0.0127 ± 0.00102 µM
- IC50 (MAO-B): 266 ± 13.4 µM
- IC50 [3, 6]: 4340 ± 126 µM

SMILES: O=C(COc1ccccc1-c1nc(-c2ccccc2)no1)N/N=C\c1cnn(-c2ccccc2)n1 [Compound 3a, (E/Z)-2-(2-(3-Phenyl-1,2,4-oxadiazol-5-yl)phenoxy)-N’-((2-phenyl-2 H-1,2,3-triazol-4-yl)methylene) acetohydrazide]
- AChE-IC50 (µM ± SD) (AChE [2]): nonexistent efficacy
- IC50 (MAO-A): 85.2 ± 5.9 µM
- IC50 [3, 6]: 622 ± 23.4 µM

SMILES: O=C(COc1ccccc1-c1nc(Cc2ccccc2)no1)N/N=C\c1cnn(-c2ccccc2)n1 [Compound 3b, (E/Z)-2-(2-(3-Benzyl-1,2,4-oxadiazol-5-yl)phenoxy)-N’-((2-phenyl-2 H-1,2,3-triazol-4-yl)methylene) acetohydrazide]
- IC50 [1]: 537 ± 19.3 µM
- AChE Selectivity Index (AChE [2]): 735
- IC50 (AChE [2]): 0.0233 ± 0.00069 µM
- IC50 (MAO-B): 140 ± 8.7 µM
- IC50 [3, 6]: 457 ± 19.6 µM

SMILES: O=C(COc1ccccc1-c1nc(-c2ccc(C(F)(F)F)cc2)no1)N/N=C\c1cnn(-c2ccccc2)n1 [Compound 3c, (E/Z)-N’-((2-Phenyl-2 H-1,2,3-triazol-4-yl)methylene)-2-(2-(3-(4-(trifluoromethyl)phenyl)-1,2,4-oxadiazol-5-yl)phenoxy)acetohydrazide]
- IC50 [1]: 582 ± 42.9 µM
- AChE-IC50 (µM ± SD) (AChE [2]): nonexistent efficacy
- IC50 (MAO-A): 115 ± 19.5 µM
- IC50 [3, 6]: 661 ± 23.8 µM

SMILES: O=C(COc1ccccc1-c1nc(-c2ccccc2)no1)NN1C(=O)c2ccccc2C1=O [Compound 4a, N-(1,3-Dioxoisoindolin-2-yl)-2-(2-(3-phenyl-1,2,4-oxadiazol-5-yl)phenoxy)acetamide]
- IC50 [1]: 1660 ± 62.3 µM
- AChE Selectivity Index (AChE [2]): 1,010
- IC50 (AChE [2]): 0.0328 ± 0.0011 µM
- IC50 (MAO-B): 394 ± 16.3 µM
- IC50 [3, 6]: 522 ± 15.9 µM

SMILES: O=C(COc1ccccc1-c1nc(Cc2ccccc2)no1)NN1C(=O)c2ccccc2C1=O [Compound 4b, 2-(2-(3-Benzyl-1,2,4-oxadiazol-5-yl)phenoxy)-N-(1,3-dioxoisoindolin-2-yl)acetamide]
- IC50 [1]: 2661 ± 26.3 µM
- IC50 (AChE [2]): 0.0293 ± 0.0013 µM
- IC50 (MAO-A): 130 ± 16.9 µM
- IC50 (MAO-B): 713 ± 22.3 µM
- IC50 [3, 6]: 1790 ± 89.3 µM

SMILES: O=C(COc1ccccc1-c1nc(-c2ccc(C(F)(F)F)cc2)no1)NN1C(=O)c2ccccc2C1=O [Compound 4c, N-(1,3-Dioxoisoindolin-2-yl)-2-(2-(3-(4-(trifluoromethyl)phenyl)-1,2,4-oxadiazol-5-yl)phenoxy)acetamide]
- AChE Selectivity Index (AChE [2]): 673
- IC50 (AChE [2]): 0.0377 ± 0.0027 µM
- IC50 (MAO-A): 144 ± 22.4 µM
- IC50 (MAO-B): 117 ± 9.8 µM
- IC50 [3, 6]: 1040 ± 88.9 µM

SMILES: O=C(COc1ccccc1-c1nc(-c2ccccc2)no1)NNC(=O)c1ccc2ccccc2n1 [Compound 5a, N’-(2-(2-(3-Phenyl-1,2,4-oxadiazol-5-yl)phenoxy)acetyl)quinoline-2-carbohydrazide]
- IC50 [1]: 885 ± 22.9 µM
- IC50 (AChE [2]): 0.0475 ± 0.0028 µM
- IC50 (MAO-B): 274 ± 21.1 µM
- IC50 [3, 6]: 2020 ± 111 µM

SMILES: O=C(COc1ccccc1-c1nc(Cc2ccccc2)no1)NNC(=O)c1ccc2ccccc2n1 [Compound 5b, N’-(2-(2-(3-Benzyl-1,2,4-oxadiazol-5-yl)phenoxy)acetyl)quinoline-2-carbohydrazide]
- AChE Selectivity Index (AChE [2]): 627
- IC50 (AChE [2]): 0.0337 ± 0.00089 µM
- IC50 [3, 6]: 3560 ± 125 µM

SMILES: O=C(COc1ccccc1-c1nc(-c2ccc(C(F)(F)F)cc2)no1)NNC(=O)c1ccc2ccccc2n1 [Compound 5c, N’-(2-(2-(3-(4-(Trifluoromethyl)phenyl)-1,2,4-oxadiazol-5-yl)phenoxy)acetyl)quinoline-2-carbohydrazide]
- IC50 [1]: 1140 ± 68.9 µM
- AChE Selectivity Index (AChE [2]): 894
- IC50 (AChE [2]): 0.0792 ± 0.0061 µM
- IC50 [3, 6]: 521 ± 11.9 µM

SMILES: O=C(O)Cc1ccccc1Nc1c(Cl)cccc1Cl [Diclofenac, reference compound]
- IC50 [3]: 1120 ± 12.6 µM

SMILES: Cc1cc(-c2noc(-c3ccc(OCC4CCN(Cc5cccc(F)c5)CC4)cc3)n2)ccn1 [III]
- IC50 (AChE [4]): 0.07 µM

SMILES: CC(C)(C)c1ccc(S(=O)(=O)Nc2ccc(-c3nc(-c4ccnc(Nc5ccccc5Cl)c4)no3)cc2)cc1 [II]
- IC50 [5]: 6.94 µM
- IC50 (GSK-3β): 0.19 µM

SMILES: O=c1c(O)c(-c2ccc(O)c(O)c2)oc2cc(O)cc(O)c12 [Quercetin, reference compound]
- IC50 [1]: 491 ± 14.8 µM

SMILES: COc1ccc(-c2noc(Cn3cc(Cn4c5ccccc5c(=O)c5ccccc54)nn3)n2)cc1 [V]
- IC50 (AChE [4]): 11.5 µM

— article PMC11246588, “New 1,2,4-oxadiazole derivatives as potential multifunctional agents for the treatment of Alzheimer’s disease: design, synthesis, and biological evaluation” (BMC Chemistry, 2024)
